For assay [1], the system named is U2OS cells (osteosarcoma). The assay can be described thus: SVV mediated killing of drug-pretreated U2OS cells. The assay is classed as cell-based. The following applies: U2OS cells pretreated for 24 hours with compound, FIG. 3. The procedure:
U2OS cells (osteosarcoma) were pretreated for 24 hours in pharmaceutical compounds to disrupt innate antiviral responses to allow increased viral mediated killing.

The test system of assay [2] is HCT-116 cells (Colorectal cancer cells). Description: SVV mediated killing of drug-pretreated HCT-116 cells. Format: cell-based, human. Particulars: HCT-116 cells pretreated for 24 hours with compound, FIG. 4. The procedure: HCT-116 cells (Colorectal cancer cells) were pretreated for 24 hours in pharmaceutical compounds to disrupt innate antiviral responses to allow increased viral mediated killing.

The subject of assay [3] is HTB-126 cells (triple negative breast cancer, TNBC). Description: Seneca Valley Virus (SVV) mediated killing of drug-pretreated HTB-126 cells. The assay is classed as cell-based. The source says: Standard deviations of replicates are presented as error bars (VP/cell with 1 PFU or TCID50 unit per 100 VPs).
(§1) In certain instances, infection with Seneca Valley Virus can be toxic to triple negative breast cancer cell lines. In these cases, it is necessary to reduce innate antiviral responses through the use of certain approved pharmaceutical compounds (see FIG. 1, FIG. 2 and FIG. 5).

In assay [4] the test system is triple negative breast cancer cells (BT-549). Description: SVV infection, replication and killing of drug-treated BT-549 cells. The assay is classed as cell-based. Particulars: FIG. 2.
Excerpt: as §1

Molecules are shown by their SMILES. Counter-ions that a name gives are not always drawn.

From patent US20220202884A1 (SENECA THERAPEUTICS, INC., priority 2019, published 2022) come the findings set out here.

In the case of `COC(=O)/C=C/C(=O)OC` [Dimethyl fumarate, dimethyl fumarate], the “Seneca Valley Virus mediated cell killing” value in assay [1] was “increased Seneca Valley Virus mediated cell killing”; in assay [2], “mainly caused by MAC inhibitors (Panobinostat or Vorinostat) instead of the JAK inhibitors”; in assay [2] (listed as dimethyl fumarate) it was “smaller effect”.

As to `C[C@@H]1CCN(C(=O)CC#N)C[C@@H]1N(C)c1ncnc2[nH]ccc12` [Tofacitinib], the “enhancement of SVV replication and cell death” value in assay [3] (FIG. 5, TNBC cell lines, 1PFU/cell of SVV and 0.8 uM of Tofacintinib) is “substantial enhancement of SVV replication in TNBC cell lines and cell death”. Moreover, the “susceptibility to virus mediated killing by SVV” value in assay [3] (HTB-126 cells, FIG. 1 (pretreated 24 hours in 12.5 micromolar tofacitinib, then 50 VP of SVV/cell) and FIG. 5) is “modified and favored the susceptibility to virus mediated killing by SVV”; in assay [4], “modified and favored the susceptibility to virus mediated killing by SVV”. Moreover, the “Seneca Valley Virus mediated cell killing” value was “augmented SVV mediated cell killing” in assay [1], “increased Seneca Valley Virus mediated cell killing” in assay [1] (listed as tofacitinib), “mainly caused by MAC inhibitors (Panobinostat or Vorinostat) instead of the JAK inhibitors” in assay [2] and “smaller effect” in assay [2] (listed as tofacitnib).

On to `O=C(CCCCCCC(=O)Nc1ccccc1)NO` [Vorinostat], for which, in assay [4], the “susceptibility to virus mediated killing by SVV” value was “modified and favored the susceptibility to virus mediated killing by SVV”. Further, the figures for the “Seneca Valley Virus mediated cell killing” value in assay [2] and in assay [2] (listed as vorinostat) were “increase in cell killing was mainly caused by MAC inhibitors” and “increased Seneca Valley Virus mediated cell killing”, respectively.
